Values of other authors, collected in US8657943B2, “1-hydroxy-2-O-acyl-sn-glycero-3-phosphocholine compounds, preparation process, antifouling composition, process for its preparation, method to prevent fouling, method to turn a surface into an antifouling surface, and, covered surface” (UFRJ, IEAPM, UFF, priority 2010, dated 2014).

Assays:
different cell types = conditions: very low concentrations
Ostrea edulis = conditions: 75 days exposure, 0.24 μg/L
mussels = conditions: concentrations of up to 100 ng/L in seawater

## 1-O-alkyl-2-acetyl-sn-glycero-3-phosphocholine [platelet activating factor]
Different cell types
  concentrations that trigger physiological responses: 10^−12 to 10^−9 M

## tri-butyl tin [TBT]
Ostrea edulis
  larval production: completely inhibited
  sex change male to female: a delay in changing sex male to female was observed
mussels
  effect on the growth of mussels: significant reductions in the growth of mussels
